From patent publication US20240165152A1, “COMPOSITIONS AND METHODS FOR ACTIVATING NK CELLS” (The Regents of the University of California, priority 2017, published 2024)

Columns and labels:
OSCSCs = assay: Cell death (PI staining) of OSCSCs differentiated with NK supernatants after chemotherapeutic drugs; format: cell-based, human
Experimental: FIG. 67A-FIG. 67B show CDDP or Paclitaxel with and without NAC induce significant cell death in OSCSCs differentiated with NK-supernatants and not in poorly-differentiated tumors. Highly purified NK cells were treated with the combination of IL-2 (1000 U/mL) and anti-CD16 mAb ([…]) for 18 hours, after which the NK supernatants were added to OSCSCs in the presence of anti-TNF-a (1:100) and anti-IFN-g (1:100) for a period of 5 days. Thereafter, OSCSCs were detached and treated with/without Cisplatin for 18-24 hours. The viability of OSCSCs was then determined using PI staining and flow cytometric analysis. One of 3 representative experiments is shown in this figure (FIG. 67A). OSCSCs were treated with the supernatants from NK cells as described in FIG. 67A. Afterwards, tumors were detached and treated with/without NAC ([…]) for 24 hours, followed by treatment with Paclitaxel for 18-24 hours. OSCSCs viability was determined by PI staining and flow cytometric analysis. One of 3 representative experiments is shown in this figure (FIG. 67B).
Staining was performed by labeling the cells with antibodies or propidium iodide, as described previously. The cells were washed twice with ice-cold PBS containing 1% BSA. Predetermined optimal concentrations of specific human monoclonal antibodies were added to 1×10^4 cells in 50 pl of cold-BSA and cells were incubated on ice for 30 min. Thereafter cells were washed in cold PBS-BSA and brought to 500 pl with PBS-BSA. For cell death assay 1×10^4 cells in 50 pl of cold-BSA were stained with 8 µg/ml propidium iodide and cells were incubated on ice for 10 min, and brought to 500 pl with PBS-BSA. Flow cytometry analysis was performed using Beckman 485 Coulter Epics XL cytometer (Brea, CA) and results were analyzed in FlowJo vX software (Ashland, OR).
NK cells were treated with a combination of anti-CD16 monoclonal antibody (3 pg/mL) and IL-2 (1,000 U/mL) for 18 hours before supernatants were removed and used for differentiation experiments. The amounts of IFN-y produced by activated NK cells were measured with IFN-γ ELISA (Biolegend, CA, USA). […]

OSCCs = assay: Cell death of OSCCs after chemotherapeutic drugs; format: cell-based, human; conditions: patient-derived differentiated oral tumor

SMILES | cell death of OSCSCs differentiated with NK supernatants (OSCSCs) | cell death of OSCCs (OSCCs)
[NH2][Pt]([NH2])([Cl])[Cl] [CDDP, Cisplatin] | significant susceptibility | higher cell death
CC(=O)N[C@@H](CS)C(=O)O [NAC] | significantly increased | 
CC(=O)O[C@H]1C(=O)[C@@]2(C)[C@H]([C@H](OC(=O)c3ccccc3)[C@]3(O)C[C@H](OC(=O)[C@H](O)[C@@H](NC(=O)c4ccccc4)c4ccccc4)C(C)=C1C3(C)C)[C@]1(OC(C)=O)CO[C@@H]1C[C@@H]2O [paclitaxel] | higher cell death | 
